# Laboratory results reported in the supplement of paper PMC10307832.
# Experiments:
# Experiment in all cases: relative viability (nuclei count vs DMSO), 5 days (fraction); higher = more cells survive
# [1] = compound: C#Cc1cccc(Nc2ncnc3cc(OC)c(OCCCCCCC(=O)NO)cc23)c1 [CUDC-101] + CC(C)C[C@H](NC(=O)[C@H](Cc1ccccc1)NC(=O)c1cnccn1)B(O)O [Bortezomib] (partner 0.002 µM)
# How it was run: (§1)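 Each reported value is a median over duplicate plates. It expresses relative viability: treated-well nuclei count divided by vehicle-well nuclei count. Lung cancer cell lines in 1536-well plates were dosed by pin tool a day after seeding, alone with one drug or with a fixed anchor-drug dose plus five library-drug doses (not always all listed) in √10 steps, and nuclei were counted after 5 days.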
# [2] = compound: C#Cc1cccc(Nc2ncnc3cc(OC)c(OCCCCCCC(=O)NO)cc23)c1 [CUDC-101] + O=C(CCCCCCC(=O)Nc1ccccc1)NO [Vorinostat] (partner 1 µM)
# How it was run: as §1
# [3] = compound: C1=CC=C2C(=C1)N=C(S2)C(C#N)C3=NC(=NC=C3)NCCC4=CN=CC=C4 + CC(C)C[C@H](NC(=O)[C@H](Cc1ccccc1)NC(=O)c1cnccn1)B(O)O [Bortezomib] (partner 0.002 µM)
# How it was run: as §1
# [4] = compound: C1=CC=C2C(=C1)N=C(S2)C(C#N)C3=NC(=NC=C3)NCCC4=CN=CC=C4 + CS(=O)(=O)N1CCN(Cc2cc3nc(-c4cccc5[nH]ncc45)nc(N4CCOCC4)c3s2)CC1 [Pictilisib] (partner 1 µM)
# How it was run: as §1
Cell Line,relative viability ([1]; first compound 0.01 µM),relative viability ([1]; first compound 0.03162 µM),relative viability ([1]; first compound 0.1 µM),relative viability ([1]; first compound 0.3162 µM),relative viability ([1]; first compound 1 µM),relative viability ([2]; first compound 0.01 µM),relative viability ([2]; first compound 0.03162 µM),relative viability ([2]; first compound 0.1 µM),relative viability ([2]; first compound 0.3162 µM),relative viability ([2]; first compound 1 µM),relative viability ([3]; first compound 0.005 µM),relative viability ([3]; first compound 0.01581 µM),relative viability ([3]; first compound 0.05 µM),relative viability ([3]; first compound 0.1581 µM),relative viability ([3]; first compound 0.5 µM),relative viability ([4]; first compound 0.005 µM),relative viability ([4]; first compound 0.01581 µM),relative viability ([4]; first compound 0.05 µM),relative viability ([4]; first compound 0.1581 µM),relative viability ([4]; first compound 0.5 µM)
PC-3 [JPC-3],0.885,0.927,0.779,0.642,0.629,0.753,0.691,0.387,0.383,0.335,0.527,0.854,0.826,0.923,0.81,0.605,0.643,0.722,0.731,0.672
IA-LM,0.772,0.781,0.795,0.575,0.196,0.997,0.915,0.93,0.797,0.586,–,0.844,0.697,0.839,0.855,0.25,0.368,0.285,0.387,0.377
NCI-H520,0.761,–,0.253,0.252,0.116,0.769,0.686,0.488,0.397,0.32,0.348,0.526,0.577,1.27,0.406,0.178,0.328,0.307,0.362,0.256
A549,–,–,–,–,–,–,–,–,–,–,–,–,–,–,–,0.379,0.487,0.414,0.62,0.496
BEN,0.882,0.759,0.779,0.75,0.543,0.656,0.557,0.573,0.538,0.386,0.699,0.818,0.869,1.02,0.893,0.59,0.509,0.584,0.576,0.561
COR-L 105,0.833,0.963,0.639,0.611,0.176,0.921,0.663,0.831,0.611,0.371,0.725,0.583,0.723,0.783,0.666,0.345,0.367,0.384,0.516,0.428
NCI-H1734,1.12,0.919,0.874,0.956,0.478,0.882,0.76,0.832,0.595,0.369,0.789,0.895,0.912,1.07,0.831,0.439,0.488,0.406,0.587,0.473
LOU-NH91,0.544,0.488,0.452,0.405,0.448,1.04,0.842,0.833,0.703,0.43,0.492,0.515,0.507,0.464,0.43,0.51,0.515,0.477,0.533,0.489
NCI-H2405,0.969,1.04,0.936,1.02,0.982,1.1,1.04,0.968,0.953,0.568,1.04,0.965,0.982,–,0.998,0.456,0.378,0.397,0.506,0.422
HCC-15,1.03,1.08,1.02,1,0.851,0.828,0.802,0.77,0.716,0.448,0.835,1.02,1.15,1.13,0.835,0.733,0.74,0.72,0.855,0.685
HCC-44,0.798,1.05,0.829,0.999,0.88,1.04,1.2,1.13,1.02,1.11,0.87,0.878,0.877,0.961,0.882,0.445,0.509,0.595,0.856,0.593
NCI-H1792,0.98,0.965,0.918,0.952,0.965,–,–,–,–,–,–,1.04,0.941,1.11,0.534,–,0.312,0.285,0.246,0.225
NCI-H2347,0.94,1.05,0.866,0.95,0.805,0.741,0.583,0.631,0.415,0.46,1.12,1.07,–,1.13,0.962,0.474,0.695,0.659,0.756,0.609
SW 900,–,–,–,–,–,0.48,0.569,0.31,0.49,0.217,–,–,–,–,–,–,–,–,–,–
RERF-LC-KJ,1.2,1.07,1.09,1.14,0.97,0.732,0.783,0.612,0.659,0.439,1.02,1.12,0.971,1.16,0.905,0.739,0.64,0.48,0.529,0.403
NCI-H522,–,–,–,–,–,0.758,0.769,1.09,0.921,0.779,–,–,–,–,–,–,–,–,–,–
NCI-H1666,0.967,0.824,0.805,0.867,0.721,1.1,1.01,0.951,1.06,1.06,1.12,0.867,0.673,0.899,0.822,0.474,0.39,0.369,0.402,0.332
LC-2-ad,1.09,1.06,1.08,1.26,0.822,0.721,0.716,0.703,0.658,0.538,1,1.08,1.01,1.08,0.944,0.437,0.524,0.487,0.556,0.426
NCI-H2023,0.932,0.935,1.08,1.26,0.844,0.781,0.654,0.716,0.703,0.435,0.893,0.956,0.942,1.14,1.02,0.283,0.205,0.209,0.265,0.239
